Measured values reported in patent publication US6743609B1, “Linoleate isomerase” (Arkion Life Sciences LLC, priority 1997, dated 2004).

How the values were obtained:
[1] = test system: P. acnes ATCC 6919 linoleate isomerase; assay: Effect of cofactors, metals, chelators and sulfhydryl reagents on isomerase activity of crude soluble enzyme preparation; assay type: biochemical, Propionibacterium acnes; settings: for effect of possible cofactor on isomerase activity: 60 minute assays
Experimental: A number of possible cofactors were tested for their effect on isomerase activity, including NAD, NADH, NADP, NADPH, FAD, FMN, ADP, ATP and glutathione.
(§1) Generally, the isomerase was assayed using an endpoint assay after 30 to 60 minutes incubation at room temperature. FIG. 18 (time course assay at different linoleic acid levels) and FIG. 19 (end point assay at different linoleic acid levels) show the effect of increasing substrate concentration on formation of […].

[2] = test system: Lactobacillus reuteri PYR8 9,11 linoleate isomerase (whole cells); assay: Whole-cell biotransformation of linoleic acid, effect of product and substrate on isomerase; assay type: cell-based; settings: 700 ppm CLA from recycled reaction broth, 1000 ppm linoleic acid
From the text: The following example describes the determination of conditions to improve enzyme stability and performance and on testing the limitations of the biotransformation process. Whole cells of L. reuteri PYR8 were used in all biotransformation experiments described below.
The effect of substrate and product on the enzyme performance was also investigated, as well as the possibility of recycling the cells. The effect of CLA on the reaction was studied by adding different concentrations of either a mixture of isomers (Sigma material, approximately 41% 9,11 isomer and 48% 10,12 CLA), or just 9,11 CLA (Matreya material, approximately 77% 9,11 CLA). Concentrations from 500 to 3000 ppm were tested. Some experiments were also performed recycling the broth from a previous biotransformation reaction with L. reuteri PYR8, resulting in an initial CLA concentration around 700 ppm. In every case, 1000 ppm linoleic acid were added. […] In the same period, almost complete conversion of the linoleic acid was obtained in the control without exogenous CLA. However, the effect was not detected when the CLA present came from recycled reaction broth. […] The results may indicate that some of the impurities present in the chemically produced CLA may be stronger inhibitors of the 9,11 isomerase than the product itself. […]

[3] = test system: C. sporogenes ATCC 25762 linoleate isomerase; assay: Effect of additives, buffer components and detergents on C. sporogenes isomerase activity; assay type: biochemical, Clostridium sporogenes
Experimental: It has been reported that solubilization in the presence of lysophosphatidylcholine (LPC) allows higher detergent concentrations to be used, thus allowing more complete membrane protein solubilization. CaCl2 can activate enzymes, such as some nucleases.
A third nonionic detergent, octyl glucoside (OG) was tested for its ability to solubilize the C. sporogenes linoleate isomerase.

L. reuteri PYR8 = assay: Whole cell biotransformation of linoleic acid to CLA; assay type: cell-based, Lactobacillus reuteri; settings: for (cis,trans)-9,11-CLA formation on addition of nonionic detergent: detergents added to 0.1-0.5% final concentration
Experimental: Cultures were grown and harvested as described above. Washed cells were resuspended in either fresh growth medium or 0.1 M Tris pH 8.0 buffer containing linoleic acid at various concentrations.
Samples were taken at appropriate intervals and analyzed for CLA as described in Example 2. In some experiments, various detergents were added to 0.1-0.5% final concentration. […] About 5 mL solvent was added to about 20 mL aqueous cell suspension in a 125 mL baffled shake flask incubated at room temperature.
Linoleic acid was added as 99% LA, dissolved in propyleneglycol (100 mg/ml solution) or emulsified with 0.5, 5 or 30% lecithin. The emulsion was prepared by blending the linoleic acid and the lecithin with the reaction medium before the addition of the cells. Linoleic acid was added at 1000 and 2000 ppm.
In the second experiment, cell recycle was studied with cells that have performed the biotransformation at different levels of linoleic acid. Cells were harvested, resuspended in breakage buffer at a 10-fold concentration, and linoleic acid was added at 1000, 1500, 2000, 2500 and 3000 ppm level. Given the higher linoleic acid concentration, the reaction was allowed to proceed for six hours. […] 1000 ppm linoleic acid were added and the reaction was followed for four hours.

9,11 linoleate isomerase = assay: Test of possible inducers of the 9,11 linoleate isomerase in the growth medium; assay type: cell-based, Lactobacillus reuteri; settings: 100 mg/l in the growth medium
Experimental: Several substances were tested as possible inducers of the 9,11 linoleate isomerase. The materials tested included: lauric acid, myristic acid, palmitic acid, palmitoleic acid, oleic acid, linoleic acid, linolenic acid, oleic acid stearyl ester, linoleyl alcohol, linoleic acid methyl ester, linoleic acid ethyl ester, stearic acid and linoleic acid methyl ester. They were added to the growth medium at a 100 mg/l level.

linoleate isomerase = assay type: biochemical; settings: pH optimum of about 7.5
[4] = target: T1, Propionibacterium acnes ATCC 6919 linoleate isomerase (10,12-linoleate isomerase) (Cutibacterium acnes, UniProt Q6A8X5); assay: Linoleate isomerase activity in crude soluble extract, effect of cofactors, chelators, sulfhydryl reagents and substrate level; assay type: biochemical; settings: increasing linoleic acid levels, FIGS. 18 and 19
T1 construct: gene not cloned in this document
T1 sequence (Q6A8X5 entry or part of it): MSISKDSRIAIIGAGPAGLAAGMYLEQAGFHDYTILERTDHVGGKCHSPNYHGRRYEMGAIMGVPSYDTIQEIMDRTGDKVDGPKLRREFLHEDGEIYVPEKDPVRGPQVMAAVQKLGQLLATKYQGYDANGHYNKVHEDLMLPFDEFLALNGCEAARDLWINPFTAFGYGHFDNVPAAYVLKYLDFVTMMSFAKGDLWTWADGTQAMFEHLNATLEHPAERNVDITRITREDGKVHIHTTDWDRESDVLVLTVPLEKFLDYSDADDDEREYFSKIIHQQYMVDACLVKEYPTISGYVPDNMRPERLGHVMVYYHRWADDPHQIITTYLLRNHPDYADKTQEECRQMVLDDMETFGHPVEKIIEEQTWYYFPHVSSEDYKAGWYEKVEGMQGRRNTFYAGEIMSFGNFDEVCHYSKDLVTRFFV
Experimental: (§2) About 50 to about 250 μL of enzyme sample was added to 1.5 mL of enzyme assay buffer for reaction. About 1 to about 2 mL of aqueous phase was separated from the enzyme reaction and was extracted with about 3 mL of hexane. […] Depending on the level of activity, assay mixtures of chromatography fractions were incubated at room temperature from about 1 to about 24 hours before extraction with hexane.
Enzyme extracts were prepared by French Press and the extract fractionated as outlined in FIG. 15. Taking the total isomerase activity in fraction A as 100%, over 93% of the activity was detected in the soluble protein fraction (B) Less than 1% of the isomerase activity was found in the washed pellet, or membrane fraction (C). Approximately 2% of the activity was located in the buffer fraction (D), after the pellet washing and centrifugation steps. Thus, the P. acnes isomerase clearly is not a membrane protein, unlike the isomerase activities in L. reuteri PYR8 and other strains examined to date.
Calcium and magnesium also had no effect.
as §1

[5] = test system: Clostridium sporogenes ATCC 25762 linoleate isomerase; assay: Linoleate isomerase activity versus linoleic acid concentration; assay type: biochemical; settings: tested from 0 to 100 ppm, FIG. 26
Experimental: as §2
Temperature optimization with crude extracts was carried out at 4° C., room temperature (˜25° C.) and 37° C. The best temperature for the isomerase activity was room temperature (FIG. 25). The isomerase activity decreased to 73% of optimum at 4° C. and 63% of optimum at 37° C.
The concentration of linoleic acid was tested from 0 to 100 ppm (FIG. 26). The optimum concentration for linoleic add was determined to be 40 ppm.

[6] = test system: isolated linoleate isomerase (source organism not stated with the values); assay: Michaelis-Menten kinetics of isolated linoleate isomerase (linoleic acid substrate, oleic acid inhibition)

Compound: c1cnc2c(c1)ccc1cccnc12 [1,10-phenanthroline]
- inhibition of isomerase activity ([1]; 1 mM): not inhibited

Compound: Nc1ncnc2c1ncn2[C@@H]1O[C@H](COP(=O)(O)OP(=O)(O)O)[C@@H](O)[C@H]1O [ADP]
- effect of possible cofactor on isomerase activity [1]: No significant effect

Compound: CCCCCC/C=C/C=C\CCCCCCCC(=O)O [CLA]
- effect of CLA from recycled reaction broth on conversion rate [2]: no difference in conversion rate

Compound: [Ca+2].[Cl-].[Cl-] [CaCl2]
- effect on enzyme activity ([3]; Tris and phosphate buffer systems): decreased the enzyme activity
- effect on enzyme activity ([3]; temperatures higher than 37° C.): no effect on the activity

Compound: [Ca] [Calcium]
- effect of metal on isomerase activity [1]: no effect

Compound: Cc1cc2nc3c(=O)[nH]c(=O)nc-3n(C[C@H](O)[C@H](O)[C@H](O)COP(=O)(O)OP(=O)(O)OC[C@H]3O[C@@H](n4cnc5c(N)ncnc54)[C@H](O)[C@@H]3O)c2cc1C [FAD]
- effect of possible cofactor on isomerase activity [1]: No significant effect

Compound: Cc1cc2nc3c(=O)[nH]c(=O)nc-3n(C[C@H](O)[C@H](O)[C@H](O)COP(=O)(O)O)c2cc1C [FMN]
- effect of possible cofactor on isomerase activity [1]: No significant effect

Compound: CCN1C(=O)C=CC1=O [N-ethylmaleimide]
- inhibition of isomerase activity ([1]; 100 μM): not inhibited

Compound: NC(=O)C1=CN([C@@H]2O[C@H](COP(=O)(O)OP(=O)(O)OC[C@H]3O[C@@H](n4cnc5c(N)ncnc54)[C@H](O)[C@@H]3O)[C@@H](O)[C@H]2O)C=CC1 [NADH]
- effect of possible cofactor on isomerase activity [1]: No significant effect

Compound: NC(=O)C1=CN([C@@H]2O[C@H](COP(=O)(O)OP(=O)(O)OC[C@H]3O[C@@H](n4cnc5c(N)ncnc54)[C@H](OP(=O)(O)O)[C@@H]3O)[C@@H](O)[C@H]2O)C=CC1 [NADPH]
- effect of possible cofactor on isomerase activity [1]: No significant effect

Compound: NC(=O)c1ccc[n+]([C@@H]2O[C@H](COP(=O)([O-])OP(=O)(O)OC[C@H]3O[C@@H](n4cnc5c(N)ncnc54)[C@H](OP(=O)(O)O)[C@@H]3O)[C@@H](O)[C@H]2O)c1 [NADP]
- effect of possible cofactor on isomerase activity [1]: No significant effect

Compound: NC(=O)c1ccc[n+]([C@@H]2O[C@H](COP(=O)([O-])OP(=O)(O)OC[C@H]3O[C@@H](n4cnc5c(N)ncnc54)[C@H](O)[C@@H]3O)[C@@H](O)[C@H]2O)c1 [NAD]
- effect of possible cofactor on isomerase activity [1]: No significant effect

Compound: CCCCCCCCO[C@@H]1O[C@H](CO)[C@@H](O)[C@H](O)[C@H]1O [OG, octyl glucoside]
- isomerase specific activity higher than that of OTGP solubilized isomerase ([3]; 1.5% (2×critical micelle concentration)): about 20%

Compound: CCCCCCCC/C=C\CCCCCCCC(=O)OCCOCC(OCCO)C1OCC(OCCO)C1OCCO (stereo not shown) [Tween-80]
- (cis,trans)-9,11-CLA formation on addition of nonionic detergent (L. reuteri PYR8): does not significantly increase

Compound: N[C@@H](CCC(=O)N[C@@H](CS)C(=O)NCC(=O)O)C(=O)O [glutathione]
- effect of possible cofactor on isomerase activity [1]: No significant effect

Compound: OCC(O)CO [glycerol]
- increase in activity on increasing the concentration ([3]; extraction buffer): 30%

Compound: CCCCCCCCCCCC(=O)O [lauric acid]
- effect as inducer on expression and/or activity of the isomerase (9,11 linoleate isomerase): No positive effect

Compound: CCCCC/C=C\C/C=C\CCCCCCCC(=O)OCC [linoleic acid ethyl ester]
- effect as inducer on expression and/or activity of the isomerase (9,11 linoleate isomerase): No positive effect

Compound: CCCCC/C=C\C/C=C\CCCCCCCC(=O)OC [linoleic acid methyl ester]
- effect as inducer on expression and/or activity of the isomerase (9,11 linoleate isomerase): No positive effect

Compound: CCCCC/C=C\C/C=C\CCCCCCCC(=O)O [linoleic acid, (cis,cis)-9,12-linoleic acid]
- Km (linoleate isomerase; read-out: Km for linoleic acid): ~8.1 µM
- substrate inhibition (L. reuteri PYR8; up to 3000 ppm linoleic acid, cells 10-fold concentrated in breakage buffer): no substrate inhibition was detected
- effect as inducer on expression and/or activity of the isomerase (9,11 linoleate isomerase): No positive effect
- substrate inhibition by linoleic acid [4]: not subject to the same type of substrate inhibition
- optimum concentration for linoleic acid [5]: 40 ppm
- linoleic acid concentration at which initial velocity decreases [6]: about 60 μM

Compound: CCCCC/C=C\C/C=C\CCCCCCCCO [linoleyl alcohol]
- effect as inducer on expression and/or activity of the isomerase (9,11 linoleate isomerase): No positive effect

Compound: [Mg] [magnesium]
- effect of metal on isomerase activity [1]: no effect

Compound: CCCCCCCCCCCCCC(=O)O [myristic acid]
- effect as inducer on expression and/or activity of the isomerase (9,11 linoleate isomerase): No positive effect

Compound: CCCCCCCC/C=C\CCCCCCCC(=O)OCCCCCCCCCCCCCCCCCC [oleic acid stearyl ester]
- effect as inducer on expression and/or activity of the isomerase (9,11 linoleate isomerase): No positive effect

Compound: CCCCCCCC/C=C\CCCCCCCC(=O)O [oleic acid]
- Ki (linoleate isomerase; read-out: Ki for oleic acid): ~80 µM
- effect as inducer on expression and/or activity of the isomerase (9,11 linoleate isomerase): No positive effect

Compound: O=C(O)c1cc[c]([Hg][Cl])cc1 [p-chloromercuribenzoate]
- inhibition of isomerase activity ([1]; 5 μM): not inhibited

Compound: CCCCCCCCCCCCCCCC(=O)O [palmitic acid]
- effect as inducer on expression and/or activity of the isomerase (9,11 linoleate isomerase): No positive effect

Compound: CCCCCC/C=C\CCCCCCCC(=O)O [palmitoleic acid]
- effect as inducer on expression and/or activity of the isomerase (9,11 linoleate isomerase): No positive effect

Compound: CCCCCCCCCCCCCCCCCC(=O)O [stearic acid]
- effect as inducer on expression and/or activity of the isomerase (9,11 linoleate isomerase): No positive effect

Compound: Triton X-100
- (cis,trans)-9,11-CLA formation on addition of nonionic detergent (L. reuteri PYR8): does not significantly increase
